Data from US20030225002A1, “Co-therapy for the treatment of migraine comprising anticonvulsant derivatives and anti-migraine agents” (priority 2002, published 2003).

How the values were obtained:
kindled epilepsy = details: animal model of kindled epilepsy; cited from earlier work
[1] = system: persistent daily headache with migraine features; test: Case Study 1: persistent daily headache with migraine features; assay type: in vivo, human; details: topiramate 75 mg/day with INDERAL at 20 mg/day
Excerpt: The patient was a person with persistent daily headache with migraine features.

[2] = system: simple and complex partial seizures and secondarily generalized seizures; details: clinical trials of human epilepsy; cited from earlier work
subjects with migraine [3] = test: Clinical Study Trials #1 and #2: duration of migraine headaches, topiramate with triptan rescue therapy; assay type: in vivo, human; details: for Duration of Migraine Headaches, Baseline / Duration of Migraine Headaches, Double-Blind: triptan rescue therapy; for Duration of Migraine Headaches, Double-Blind: Double-Blind Phase; for Duration of Migraine Headaches, Difference: Double-Blind minus Baseline
Experimental: (§1) The primary objective of these studies was to evaluate the safety and efficacy of three doses of topiramate (50, 100, and 200 mg/day) versus placebo in the prophylaxis of migraine based on the change in the monthly (28 day) migraine period rate from the Prospective Baselin,e Period to the Double-Blind Phase. The secondary objectives for the studies were to assess dose response relationship, and to evaluate the effect of prophylactic treatment with topiramate (50, 100, and 200 mg/day) versus placebo on Health-Related Quality of Life (HRQL).
(§2) The studies were randomized, double-blind, placebo-controlled, parallel-group, multicenter studies. Male and female subjects were randomized equally to the four treatment groups.
(§3) While the IHS criteria was used to establish the diagnosis at study entry, the evaluation of efficacy was based on migraine periods. A migraine period was defined as the length of time between the onset and cessation of painful migraine symptoms. This period could last up to, but no longer than, 24 hours. If the painful symptoms persisted more than 24 hours after their initial onset, this was considered to be a new, distinct migraine period. If symptoms recurred within 24 hours of the initial onset, this was considered part of the same, initial period.
(§4) Subjects who completed the Baseline Phase and met the entry criteria were randomized to one of four treatment groups: 50 mg/day topiramate, 100 mg/day topiramate, 200 mg/day topiramate or placebo. The Double-Blind Phase had two periods: Titration and Maintenance, which are described in more detail below.
(§5) The Titration Period immediately followed the Baseline Phase and extended for eight weeks (56 days). During this period, subjects randomized to topiramate were started at a dose of 25 mg/day and the daily dose was increased by 25 mg weekly until they reach their assigned dose (or maximum tolerated dose, whichever is less). From the third week of Titration until the end of the Maintenance Period, a maximum of two dose level reductions were permitted for unacceptable tolerability problems. If the subject was still in the Titration Period after a dose reduction, rechallenge may have occurred in an attempt to achieve the subject's assigned dose, and, if unsuccessful, the dose may have been reduced again to the original reduced dose. Subjects who had their study medication dose decreased twice, and were still experiencing unacceptable tolerability problems that warranted additional dose reductions, exited the study. Clinic visits occurred on Day 29 (Visit 3) and Day 57 (Visit 4/End of Titration).
(§6) During this 18-week period, the subjects remained on the dose of study medication reached at the end of the Titration Period (the assigned dose or the maximum tolerated dose). If the subject experienced unacceptable tolerability problems, the dose was reduced, only one dose reduction was permitted in the maintenance. No rechallenge was permitted during the Maintenance Period, so that subject continued on the reduced dose for the remainder of the period. Subjects who already had their study medication dose decreased by two levels, and were still experiencing unacceptable tolerability problems that warranted additional dose reductions exited the study. Clinic visits occurred on Day 85 (Visit 5), Day 113 (Visit 6), Day 141 (Visit 7) and Day 183 (Visit 8/ Double-Blind Final Visit or Early Withdrawal).
(§7) Subjects were randomized to one of four treatment groups: a) placebo, b) 50 mg/day topiramate, c) 100 mg/day topiramate, or d) 200 mg/day topiramate. All subjects received study medication in a b.i.d. dosing regimen except during the first week of Titration, during which they took single evening doses.
(§8) In keeping with good pain management practices, subjects enrolled in these studies were permitted to take acute abortive/rescue medication as indicated for the treatment of pain during migraine/headache attacks. […]

[4] = system: severe refractory migraine with and without aura; test: Case Study 3: severe refractory migraine with and without aura; assay type: in vivo, human
Experimental: The patient was a person with a twenty-year history of severe refractory migraine with and without aura. […] The patient was started on topiramate at 50 mg/day increasing to 100 mg in the morning and 100 mg in the evening, in combination with INDERAL at 160 mg/day. […] After about 6 months, the patient was prescribed EFFEXOR XR (vanlafaxine HCl) at 37 mg/day, an increased topiramate dose of 125 mg in the morning and 150 mg in the evening, and 160 mg/day INDERAL.

seizures = details: several rodent models of epilepsy; cited from earlier work
subjects with migraine [5] = test: Clinical Study Trials #1 and #2: severity of photophobia associated with migraine headaches; assay type: in vivo, human; details: for Severity of Photophobia Associated Migraine Headaches, Baseline / Severity of Photophobia Associated Migraine Headaches, Double-Blind / Severity of Photophobia Associated Migraine Headaches, Difference: scale 0 to 3; for Severity of Photophobia Associated Migraine Headaches, Baseline / Severity of Photophobia Associated Migraine Headaches, Double-Blind: triptan rescue therapy; for Severity of Photophobia Associated Migraine Headaches, Double-Blind: Double-Blind Phase; for Severity of Photophobia Associated Migraine Headaches, Difference: Double-Blind minus Baseline
Experimental: as §1, §2, §3, §4, §5, §6, §7, §8

subjects with migraine [6] = test: Clinical Study Trials #1 and #2: severity of nausea associated with migraine headaches; assay type: in vivo, human; details: for Severity of Nausea Associated Migraine Headaches, Baseline / Severity of Nausea Associated Migraine Headaches, Double-Blind / Severity of Nausea Associated Migraine Headaches, Difference: scale 0 to 3; for Severity of Nausea Associated Migraine Headaches, Baseline / Severity of Nausea Associated Migraine Headaches, Double-Blind: triptan rescue therapy; for Severity of Nausea Associated Migraine Headaches, Double-Blind: Double-Blind Phase; for Severity of Nausea Associated Migraine Headaches, Difference: Double-Blind minus Baseline
Experimental: as §1, §2, §3, §4, §5, §6, §7, §8

subjects with migraine [7] = test: Clinical Study Trials #1 and #2: severity of migraine headaches, topiramate with triptan rescue therapy; assay type: in vivo, human; details: for Severity of Migraine Headaches, Baseline / Severity of Migraine Headaches, Double-Blind: triptan rescue therapy; for Severity of Migraine Headaches, Double-Blind: Double-Blind Phase; for Severity of Migraine Headaches, Difference: Double-Blind minus Baseline
Experimental: as §1, §2, §3, §4, §5, §6, §7, §8

CC1(C)O[C@@H]2[C@@H](CO[C@@]3(COS(N)(=O)=O)OC(C)(C)O[C@@H]23)O1 [topiramate, 2,3:4,5-bis-O-(1-methylethylidene)-β-D-fructopyranose sulfamate]
Block of seizures (kindled epilepsy): effectively block seizures | Effect on daily headaches [1]: significant improvement and resolution of the daily headaches | Migraine headache frequency on treatment [1]: approximately one per week | Efficacy in treating simple and complex partial seizures and secondarily generalized seizures [2]: effective as adjunctive therapy or as monotherapy | Effect on duration of headaches (in words) (subjects with migraine [3]; 200 mg topiramate treatment): duration of headaches increased | Duration of Migraine Headaches, Baseline (subjects with migraine [3]; TPM 50 mg): 12.77 h | Duration of Migraine Headaches, Double-Blind (subjects with migraine [3]; TPM 50 mg): 11.60 h | Duration of Migraine Headaches, Difference (subjects with migraine [3]; TPM 50 mg): -1.17 h | Duration of Migraine Headaches, Baseline (subjects with migraine [3]; TPM 100 mg): 14.75 h | Duration of Migraine Headaches, Double-Blind (subjects with migraine [3]; TPM 100 mg): 13.17 h | Duration of Migraine Headaches, Difference (subjects with migraine [3]; TPM 100 mg): -1.59 h | Duration of Migraine Headaches, Baseline (subjects with migraine [3]; TPM 200 mg): 10.84 h | Duration of Migraine Headaches, Double-Blind (subjects with migraine [3]; TPM 200 mg): 12.05 h | Duration of Migraine Headaches, Difference (subjects with migraine [3]; TPM 200 mg): +1.21 hours | Effect on duration of a migraine headache (in words) (subjects with migraine [3]; topiramate with triptan rescue medications, groups taking 50 mg and 100 mg): numerically measurable decrease in the duration of a migraine headache | Response of severe refractory migraine ([4]; topiramate 100 mg in the morning and 100 mg in the evening with INDERAL at 160 mg/day): initial positive response, but the headaches broke through | Response of severe refractory migraine ([4]; topiramate 125 mg morning and 150 mg evening, EFFEXOR XR 37 mg/day, INDERAL 160 mg/day): Modest but sustained improvement | Block of seizures (seizures): effectively block seizures | Severity of Photophobia Associated Migraine Headaches, Baseline (subjects with migraine [5]; TPM 50 mg): 1.83 | Severity of Photophobia Associated Migraine Headaches, Double-Blind (subjects with migraine [5]; TPM 50 mg): 1.68 | Severity of Photophobia Associated Migraine Headaches, Difference (subjects with migraine [5]; TPM 50 mg): −0.14 | Severity of Photophobia Associated Migraine Headaches, Baseline (subjects with migraine [5]; TPM 100 mg): 1.77 | Severity of Photophobia Associated Migraine Headaches, Double-Blind (subjects with migraine [5]; TPM 100 mg): 1.58 | Severity of Photophobia Associated Migraine Headaches, Difference (subjects with migraine [5]; TPM 100 mg): −0.19 | Severity of Photophobia Associated Migraine Headaches, Baseline (subjects with migraine [5]; TPM 200 mg): 1.62 | Severity of Photophobia Associated Migraine Headaches, Double-Blind (subjects with migraine [5]; TPM 200 mg): 1.57 | Severity of Photophobia Associated Migraine Headaches, Difference (subjects with migraine [5]; TPM 200 mg): −0.05 | Statistical significance of effect, text under Table 4 (in words) (subjects with migraine [5]; patients taking 100 mg topiramate in Study 1): Statistically significant differences in the severity of nausea | Effect on severity of associated photophobia (in words) (subjects with migraine [5]; topiramate with triptan rescue medication vs triptan rescue alone, measurable at 50 mg and 100 mg): decreased the severity of associated photophobia | Severity of Nausea Associated Migraine Headaches, Baseline (subjects with migraine [6]; TPM 50 mg): 1.17 | Severity of Nausea Associated Migraine Headaches, Double-Blind (subjects with migraine [6]; TPM 50 mg): 1.17 | Severity of Nausea Associated Migraine Headaches, Difference (subjects with migraine [6]; TPM 50 mg): −0.01 | Severity of Nausea Associated Migraine Headaches, Baseline (subjects with migraine [6]; TPM 100 mg): 1.22 | Severity of Nausea Associated Migraine Headaches, Double-Blind (subjects with migraine [6]; TPM 100 mg): 1.12 | Severity of Nausea Associated Migraine Headaches, Difference (subjects with migraine [6]; TPM 100 mg): −0.10 | Severity of Nausea Associated Migraine Headaches, Baseline (subjects with migraine [6]; TPM 200 mg): 1.12 | Severity of Nausea Associated Migraine Headaches, Double-Blind (subjects with migraine [6]; TPM 200 mg): 1.09 | Severity of Nausea Associated Migraine Headaches, Difference (subjects with migraine [6]; TPM 200 mg): −0.03 | Statistical significance of effect on severity of nausea (in words) (subjects with migraine [6]; patients taking 100 mg topiramate): Statistically significant differences in the severity of nausea | Effect on severity of nausea associated with migraine headaches (in words) (subjects with migraine [6]; topiramate with triptan class rescue medications, measurable at 100 mg and 200 mg): decrease in the severity of nausea | Severity of Migraine Headaches, Baseline (subjects with migraine [7]; TPM 50 mg, scale 0 to 3 (0=none, 3=severe)): 2.32 | Severity of Migraine Headaches, Double-Blind (subjects with migraine [7]; TPM 50 mg, scale 0 to 3): 2.18 | Severity of Migraine Headaches, Difference (subjects with migraine [7]; TPM 50 mg, scale 0 to 3): −0.13 | Severity of Migraine Headaches, Baseline (subjects with migraine [7]; TPM 100 mg, scale 0 to 3): 2.33 | Severity of Migraine Headaches, Double-Blind (subjects with migraine [7]; TPM 100 mg, scale 0 to 3): 2.14 | Severity of Migraine Headaches, Difference (subjects with migraine [7]; TPM 100 mg, scale 0 to 3): −0.19 | Severity of Migraine Headaches, Baseline (subjects with migraine [7]; TPM 200 mg, scale 0 to 3): 2.26 | Severity of Migraine Headaches, Double-Blind (subjects with migraine [7]; TPM 200 mg, scale 0 to 3): 2.16 | Severity of Migraine Headaches, Difference (subjects with migraine [7]; TPM 200 mg, scale 0 to 3): −0.10 | Statistical significance of effect on severity of migraine headaches (in words) (subjects with migraine [7]; patient group taking 100 mg topiramate): Statistically significant results | Effect on severity of migraine headaches (in words) (subjects with migraine [7]; topiramate in combination with triptan rescue medication vs rescue medications alone, 50, 100 and 200 mg): decrease in the severity of migraine headaches
